# Laboratory results: paper PMC5053593, “Tetrahydrobiopterin Supplementation: Elevation of Tissue Biopterin Levels Accompanied by a Relative Increase in Dihydrobiopterin in the Blood and the Role of Probenecid-Sensitive Uptake in Scavenging Dihydrobiopterin in the Liver and Kidney of Rats” (PLoS ONE, 2016)
# Structures can show the parent of a compound that is named as a salt. Where two headings read alike, the source gives them in different places.
# Legend:
# [1] = rat, in vivo
# Source text: (§1) In the following sample acquisition, special care to ensure minimal oxidation of BH4 was taken throughout the following procedure. In brief, the abdomen was opened and cannulae were set in place for collecting bile and urine. The blood samples were drawn from the tail vein into a heparin-coated capillary containing a solution of 0.1 M ascorbic acid (less than 5% by volume), and they were then subjected to differential iodine oxidation for BP determination. The urine was collected at intervals from the bladder through an indwelling needle connected to an airtight syringe in which the dead space had been filled with saline containing 50 mM each of ascorbic acid and EDTA (pH 6.8). The urine was immediately mixed with 9 volumes of 10 mM HCl containing 5 mM antioxidant. The aliquots were then subjected to quantitation of BP and creatinine. BP excretion was expressed as BP/creatinine (μmol/mg creatinine) based on the BP concentration (nmol/mL) divided by the time-matched creatinine level (μg/mL). In calculating the cumulative total, the amounts of BP in each fraction were added. Calculations were based on the BP concentration (nmol/mL) multiplied by the respective urine volume (mL) produced between each sampling time point regardless of the creatinine concentration. The bile was also collected from individual rats through a cannula in the bile duct and was immediately subjected to BP determination. The cumulative BP amount was calculated by adding up all samples measured.
# (§2) Biopterin was determined essentially according to Fukushima and Nixon and modified as described previously. Animal tissues contain at least 4 chemical species of the reduced biopterin family; BH4-4a-carbinolamine (or 4a-hydroxy-tetrahydrobiopterin), quinonoid dihydrobiopterin and 7,8-dihydrobiopterin as well as BH4. The Fukushima and Nixon method includes tissue homogenization and extraction of pterin compounds followed by measurement of amount of fully oxidized biopterin after differential iodine oxidation under acid and alkaline conditions. With their method, the biopterin quantity remaining after the acid-oxidation was taken as the total biopterin (BP = “BH4” + “BH2” + “oxidized biopterin”) and that which remained after the alkaline-oxidation, as 7,8-dihydrobiopterin (BH2) plus oxidized biopterin. […] Accordingly, in this study, the biopterin amount measured after the acid iodine oxidation was taken as the sum of “BH4” and “BH2” (“BP” = “BH2” + “BH4”), and that after the alkaline oxidation, as the amount of “BH2”. The difference was therefore taken as the “BH4” amount. The BH4 fraction (BH4%; the percentage of BH4 in BP) was calculated for each individual sample. The amounts of BH4 and BH2 were calculated based on molecular weights of 241 g/mol and 239 g/mol, respectively.
# The urinary creatinine concentration was measured using a creatininase-HMMPS method according to the manufacturer’s instructions (L-type Creatinine M; Wako Pure Chemical Industries, Osaka, Japan).
# Data were expressed as means ±S.E. The statistical significance of two groups with non-repeated determination was analyzed by Student’s t-test. The significance of difference between determinations at different times with individual animal groups was analyzed by the Paired t-test. Significance of difference between three groups was analyzed by Tukey’s test. All the statistical analyses were performed with Pharmaco Basic Ver.15.0.1 (Scientist Co. Ltd., Tokyo). Using results of pterin kinetics, exponential least square approximation was performed with Excel software using Microsoft Office for Mac.
# [2] = both, Sprague-Dawley, rat, in vivo
# Source text: as §1
# Biopterin was determined essentially according to Fukushima and Nixon and modified as described previously. […] With their method, the biopterin quantity remaining after the acid-oxidation was taken as the total biopterin (BP = “BH4” + “BH2” + “oxidized biopterin”) and that which remained after the alkaline-oxidation, as 7,8-dihydrobiopterin (BH2) plus oxidized biopterin. […] Accordingly, in this study, the biopterin amount measured after the acid iodine oxidation was taken as the sum of “BH4” and “BH2” (“BP” = “BH2” + “BH4”), and that after the alkaline oxidation, as the amount of “BH2”. […] The BH4 fraction (BH4%; the percentage of BH4 in BP) was calculated for each individual sample. The amounts of BH4 and BH2 were calculated based on molecular weights of 241 g/mol and 239 g/mol, respectively.
# Data were expressed as means ±S.E. The statistical significance of two groups with non-repeated determination was analyzed by Student’s t-test. The significance of difference between determinations at different times with individual animal groups was analyzed by the Paired t-test. Significance of difference between three groups was analyzed by Tukey’s test. […]
# [3] = both, Sprague-Dawley, rat, in vivo; remark: listed apart in the source
# Experimental: Each blood sample was divided into three portions; one served as a “whole blood” specimen, the second was for the hematocrit determination, and the third was centrifuged (10,000 rpm, 4°C, 5 min) to separate red blood cells (RBCs) from the plasma. The whole blood, plasma, and RBCs were separately subjected to differential iodine oxidation for the BP determination described below. The results were expressed as the amount of BP per unit volume of the original blood sample (plasma + RBC, mL) based on the hematocrit value. The kidneys, liver, and whole brain were removed without prior perfusion, rinsed with saline, blotted, weighed, frozen in liquid nitrogen, and then stored at -80°C until BP determination. BP carryover with the blood was ignored in the liver and kidney. However, for the brain, the BP carryover was estimated using an average blood inclusion of 1.2% (v/w), which was determined by a comparison of the heme content of the blood and brain homogenates based on light absorbance at 415 nm.
# as §2
# [4] = set-up: method as in PMID 22318121, PMID 22318121; settings: cited from earlier work
compound,measurement,setting,value
"C[C@H](O)[C@H](O)[C@H]1CNc2nc(N)[nH]c(=O)c2N1 [6RBH4, (6R)-L-erythro-5,6,7,8-tetrahydrobiopterin dihydrochloride]",Urinary BP outflow,"[1]; both, Sprague-Dawley",1840 ± 250 nmol
same,Urinary BP outflow as % of gross outflow obtained by 270 min,"[1]; both, Sprague-Dawley",about 58%
same,Urinary BH4%,"[1]; both, Sprague-Dawley, 30 min",95 ± 1%
same,Urinary BH4%,"[1]; both, Sprague-Dawley, 90 min",87 ± 2%
same,Urinary BH4%,"[1]; both, Sprague-Dawley, 240 min",ca. 94%
same,Creatinine-based urinary BP AUC0–270,"[1]; iv, 5 mg/kg",731 (μmol/mg Cr)•min
same,Biliary BH4%,[2],~95%
same,"Biliary BP outflow fit, rate constant k",[2],0.007 min⁻¹
same,C0,[2],47.2 µM
same,Cumulative excretion of BP in the bile as % of that in the urine,[2],about 3%
same,BH4% in blood,[3]; 30 min,93.9 ±0.6%
same,BH4% in kidney,[3]; 30 min,98.0 ±0.2%
same,BP (nmol) per organ,[3]; 30 min,76.8 nmol
same,"BP (nmol), sub-total of liver, blood, kidneys, brain",[3]; 30 min,515 nmol
same,Brain BP increase over untreated rats,[3]; 30 min,about 43%
same,Kidney BP over the initial value,[3]; 30 min,58 fold
same,Liver BP content,[3]; 30 min,53.3 nmol/g
same,Liver BP over the initial value,[3]; 30 min,9.1 fold
same,BH4% in blood,[3]; 120 min,96.2 ±0.1%
same,BH4% in liver,[3]; 120 min,98.8 ±0.1%
same,BP (nmol) per organ,[3]; 120 min,39.5 nmol
same,"BP (nmol), sub-total of liver, blood, kidneys, brain",[3]; 120 min,325 nmol
same,"Urinary BP flow, glomerular filtration rate constant k",[4],0.013 min⁻¹
same,"Urinary BP flow, observed gross rate constant k",[4],0.043 min⁻¹
same,"Urinary BP flow, tubular secretion rate constant k",[4]; gross minus glomerular rate constant,0.030 min⁻¹
